Assay results taken from PubChem BioAssay AID651648 (Sanford-Burnham Center for Chemical Genomics, 2012).
Activity calls are given as the source filed them. How the calls were made is not given here.

The compounds below were run against CRF-binding protein / CRF-R2 receptor complex (human) (assay: CRF-BP/CRF-R2 complex agonists, SAR follow-up, cell-based, 384-well (AID 651648)). Settings: cells expressing CRF-BP/CRF-R2 complex, agonist read-out.
For `CCOc1ccccc1N(CC(=O)N1CCC(C)CC1)S(=O)(=O)c1ccc(SC)cc1`, the EC50 was > 20 µM (inactive). In the case of `CC(=O)Nc1ccc(Sc2ncccc2C(=O)Nc2ccccc2Br)cc1`, the EC50 is reported as > 20 µM (inactive). `COc1ccc(C)cc1N(CC(=O)N1CCOCC1)S(=O)(=O)c1ccccc1` gave an EC50 of 10.7 µM. For `CCCCCCc1cc2cc(C(=O)NCc3ccccc3)c(=N)oc2cc1O`, the EC50 was > 20 µM (inactive). For `O=C(CCn1c2c(c3ccccc31)CCCC2)NNC(=O)c1ccccc1C(=O)O`, the EC50 was > 20 µM (inactive). Work on `O=c1c(/C=C(\O)c2ccc(F)cc2)nc2ccccc2n1-c1ccccc1` yielded an EC50 of 9.91 µM. For `CCNC(=S)NNC(=O)c1cccn(Cc2ccc(Cl)cc2Cl)c1=O`, the EC50 was > 20 µM (inactive). `CCOc1ccc(N(CC(=O)N2CCOCC2)S(=O)(=O)c2ccccc2)cc1` was tested, and the EC50 was > 20 µM (inactive). In the case of `CC(Oc1ccc(Br)cc1)C(=O)N1CCc2ccccc21` (stereo not drawn), the EC50 is reported as > 20 µM (inactive). `CCOc1ccccc1N(CC(=O)N1CCOCC1)S(=O)(=O)c1ccccc1` showed an EC50 of 4.77 µM. For `COc1ccc(C(=O)CSc2nnn(-c3cccc(NC(C)=O)c3)n2)cc1`, the EC50 was > 20 µM (inactive). For `CC(=O)Nc1ccc(Sc2ncccc2C(=O)Nc2ccc(C(F)(F)F)cc2)cc1`, the EC50 was > 20 µM (inactive). With `Cc1ccc2oc(=O)c(/C=C(\O)c3sc(C)nc3C)nc2c1` the EC50 was > 20 µM (inactive). With `CCOc1ccccc1N(CC(=O)N1CCOCC1)S(=O)(=O)c1cc(C(=O)OC)ccc1OC` the EC50 was > 20 µM (inactive). With `COc1ccccc1N(CC(=O)N1CCOCC1)S(=O)(=O)c1ccc(C)cc1` the EC50 was > 20 µM (inactive). With `Cc1cc(=O)[nH]c(SCC(=O)Nc2ccc(Br)cc2)c1C#N` the EC50 was > 20 µM (inactive). `CC(=O)Nc1ccc(Sc2ncccc2C(=O)Nc2ccc(F)cc2)cn1` showed an EC50 of 0.953 µM. In the case of `CC1(C)C(=O)OC(c2cccn2-c2ccc([N+](=O)[O-])cc2)C2(CCCCC2)C1=O` (stereo not drawn), the EC50 is reported as > 20 µM (inactive). With `O=C(Nc1cc(S(=O)(=O)N2CCCCC2)ccc1O)c1ccccc1NS(=O)(=O)c1ccc(F)c(F)c1` the EC50 was > 20 µM (inactive). `COc1ccc(C)cc1NC(=O)c1cccnc1Sc1ccc(NC(C)=O)cc1` was tested, and the EC50 was > 20 µM (inactive). `Cc1cc(S(=O)(=O)c2cc3ccc(O)c(C)c3oc2=O)ccc1F` was tested, and the EC50 was 2.29 µM. Compound `CCOc1ccccc1N(CC(=O)N1CCOCC1)S(=O)(=O)c1ccc(C)cc1` has an EC50 of 2.84 µM. `Cc1ccc2nc(NCCC(=O)O)nc(-c3ccccc3)c2c1` was tested, and the EC50 was > 20 µM (inactive). For `CC(=O)Nc1ccc(Sc2ncccc2C(=O)Nc2cc(C)cc(C)c2)cn1`, the EC50 was > 20 µM (inactive). Work on `CCOc1ccccc1N(CC(=O)N1CCOCC1)S(=O)(=O)c1ccc(Br)cc1OC(F)(F)F` yielded an EC50 of 7.02 µM. With `CCOc1ccc(N(CC(=O)N2CCOCC2)S(=O)(=O)c2ccc(OC)cc2)cc1` the EC50 was > 20 µM (inactive). With `Cc1ccccc1N(CC(=O)N1CCOCC1)S(=O)(=O)c1ccc(Cl)cc1` the EC50 was > 20 µM (inactive). In the case of `N#Cc1c(-c2ccccc2)cc(-c2ccccc2)nc1SCC(=O)NCC(=O)O`, the EC50 is reported as > 20 µM (inactive). With `COc1ccccc1N(CC(=O)N1CCOCC1)S(=O)(=O)c1ccccc1` the EC50 was > 20 µM (inactive). For `CC1(C(=O)NC(=S)NNC(=O)c2ccncc2)CCCCC1`, the EC50 was 5.94 µM. Compound `CC(C)c1nc2c(c(=O)c3ccccc3n2C)c(=O)n1CCc1ccccc1` has an EC50 of 7.24 µM. With `Cc1ccc(S(=O)(=O)NCC(=O)N(CC(=O)NCc2ccco2)Cc2ccccc2)cc1` the EC50 was 6.7 µM. `O=C(NC(=O)c1ccccc1O)c1ccc(C(F)(F)F)cc1` showed an EC50 of 13.6 µM. `O=C(O)CCNc1nc(-c2ccccc2)c2cc(Br)ccc2n1` was tested, and the EC50 was > 20 µM (inactive). In the case of `COc1ccc(CCn2c(C(C)C)nc3c(c(=O)c4ccccc4n3C)c2=O)cc1`, the EC50 is reported as > 20 µM (inactive). Compound `CC(=O)Nc1ccc(Sc2ncccc2C(=O)Nc2ccc(OC(F)(F)F)cc2)cn1` has an EC50 of 5.32 µM. With `O=C(Nc1ccc(Br)cc1Cl)c1ccc2c(=O)n3c(nc2c1)CCC3` the EC50 was > 40 µM (inactive). `Cc1c(-n2cc(C(=O)c3ccccc3O)cc(C#N)c2=O)c(=O)n(-c2ccccc2)n1C` was tested, and the EC50 was > 20 µM (inactive). `CCOc1ccccc1N(CC(=O)N1CCOCC1)S(=O)(=O)c1ccc(OC)cc1` showed an EC50 of 5.85 µM. `Cc1[nH]n(-c2cccc(Cl)c2)c(=O)c1-c1ccc(Cl)cc1` was tested, and the EC50 was > 20 µM (inactive). With `CCOc1cccc(N(CC(=O)N2CCOCC2)S(=O)(=O)c2ccc(OC)cc2)c1` the EC50 was > 20 µM (inactive). `CCOc1ccccc1N(CC(=O)N1CCOCC1)S(=O)(=O)c1ccc(SC)cc1` was tested, and the EC50 was 1.47 µM. For `CCOc1ccccc1N(CC(=O)N1CCCC1)S(=O)(=O)c1ccc(SC)cc1`, the EC50 was > 20 µM (inactive). With `CCOc1ccccc1N(CC(=O)N1CCOCC1)S(=O)(=O)c1ccccc1C#N` the EC50 was > 20 µM (inactive). `O=C(COC(=O)[C@H](Cc1ccccc1)NC(=O)c1ccco1)NCc1ccccc1` was tested, and the EC50 was 11.3 µM. With `COc1ccc(S(=O)(=O)N(CC(=O)N2CCOCC2)c2ccccc2OC)cc1` the EC50 was > 20 µM (inactive). For `CC(=O)Nc1ccc(Sc2ncccc2C(=O)Nc2cc(Cl)cc(Cl)c2)cn1`, the EC50 was > 20 µM (inactive). `Cc1sc(NC(=O)C2CCCCC2C(=O)O)c(C(N)=O)c1-c1ccc(C(C)(C)C)cc1` (stereo not drawn) showed an EC50 of 9.52 µM. With `Oc1ccc2ccccc2c1CN1CCCCC1` the EC50 was > 20 µM (inactive). For `CC(=O)Nc1ccc(Sc2ncccc2C(=O)Nc2ccc(F)cc2)cc1`, the EC50 was > 20 µM (inactive). Compound `CCOc1ccccc1N(CC(=O)N1CCOCC1)S(=O)(=O)c1cccc(OC)c1` has an EC50 of 3.67 µM. For `O=C(O)c1ccc(COc2ccccc2C=C2C(=O)c3ccccc3C2=O)cc1`, the EC50 was > 20 µM (inactive). In the case of `CCOc1cccc(N(CC(=O)N2CCOCC2)S(=O)(=O)c2ccccc2)c1`, the EC50 is reported as > 20 µM (inactive). For `CSCCC(NC(=O)c1ccco1)C(=O)N1CC=C(c2ccccc2)CC1` (stereo not drawn), the EC50 was 13.5 µM. Work on `CCOc1ccccc1N(CC(=O)N1CCOCC1)S(=O)(=O)c1ccc(F)cc1` yielded an EC50 of 3.78 µM. For `CCOc1ccc(S(=O)(=O)N(CC(=O)N2CCOCC2)c2ccccc2)cc1`, the EC50 was > 20 µM (inactive). For `CCOc1ccc(N(CC(=O)N2CCOCC2)S(=O)(=O)c2ccc(C)cc2)cc1`, the EC50 was > 20 µM (inactive). Compound `CSCCC(NC(=O)c1ccco1)C(=O)OC(C)C(=O)NC(=O)NC1CCCCC1` (stereo not drawn) has an EC50 of 1.61 µM. For `Cc1cccc(Oc2ccc(NC(=O)c3ccccc3C(=O)O)cc2)c1C`, the EC50 was > 20 µM (inactive). With `CCOc1ccc(N(CC(=O)N2CCOCC2)S(=O)(=O)c2ccc(SC)cc2)cc1` the EC50 was > 20 µM (inactive). `CCOC(=O)N1CCN(C(=O)c2c[nH]c3ccc(S(=O)(=O)N(C)c4cccc(C)c4)cc3c2=O)CC1` showed an EC50 of 2.51 µM. With `CCOc1ccccc1N(CC(=O)N1CCOCC1)S(=O)(=O)c1ccc(OC)cc1OC` the EC50 was > 20 µM (inactive). `CC(=O)Nc1cccc(OC(=O)c2ccoc2C)c1` gave an EC50 of 9.4 µM. For `CC(=O)Nc1ccc(Sc2ncccc2C(=O)Nc2cccc(OC(F)(F)F)c2)cc1`, the EC50 was > 20 µM (inactive). `CC(=O)Nc1ccc(Sc2ccccc2C(=O)Nc2ccc(F)cc2)cn1` was tested, and the EC50 was > 20 µM (inactive). With `COc1ccc(NC(=O)c2cccnc2Sc2ccc(NC(C)=O)nc2)cc1` the EC50 was > 20 µM (inactive). In the case of `COc1ccc(NC(=O)c2ccccc2Sc2ccc(NC(C)=O)nc2)cc1`, the EC50 is reported as > 20 µM (inactive). Work on `CCCCCn1nc(-c2ccccc2)c2nc3ccccc3nc21` yielded an EC50 of 3.16 µM. For `Cc1nc2c(c(=O)c3ccccc3n2C)c(=O)n1C1CCCCCC1`, the EC50 was > 20 µM (inactive). `CC(=O)Nc1ccc(Sc2ncccc2C(=O)Nc2ccc(Br)cc2)cc1` gave an EC50 of 15.5 µM. With `CCOc1ccccc1N(CC(=O)N1CCOCC1)S(=O)(=O)c1ccc(C#N)cc1` the EC50 was > 20 µM (inactive). In the case of `O=C(Nc1cc(Cl)cc(Cl)c1)c1coc(=O)c(Br)c1`, the EC50 is reported as > 20 µM (inactive). With `CCOC(=O)c1sc(NC(=O)c2cc(-c3ccccc3)nc3ccccc23)c(C#N)c1C` the EC50 was > 20 µM (inactive). In the case of `O=C1Nc2ccccc2N(O)N1c1cc(-c2cccc(Cl)c2)no1`, the EC50 is reported as > 20 µM (inactive). In the case of `O=C(Nc1ccc(SC(F)F)cc1)c1ccc2c(=O)n3c(nc2c1)CCC3`, the EC50 is reported as > 20 µM (inactive). With `O=C(O)c1cc(Cl)ccc1-c1ccc(/C=C/c2cc(C(F)(F)F)[nH]c(=O)n2)o1` the EC50 was 5.43 µM. For `O=[N+]([O-])c1ccc(O)c(Nc2ncnc3ccc(Br)cc23)c1`, the EC50 was > 20 µM (inactive). With `CCc1ccccc1N(CC(=O)N1CCOCC1)S(=O)(=O)c1ccc(C)cc1` the EC50 was > 20 µM (inactive). Compound `Cc1cc(NC(=O)COC(=O)[C@H](Cc2ccccc2)NC(=O)c2ccco2)no1` has an EC50 of 5.58 µM. `CCC1CCCCN1Cc1ccc(OC)c(C)c1` (stereo not drawn) was tested, and the EC50 was > 20 µM (inactive). For `CCOc1ccccc1N(CC(=O)N1CCOCC1)S(=O)(=O)c1cccc(Br)c1`, the EC50 was 1.45 µM. For `CCOc1ccccc1N(CC(=O)N1CCCCCC1)S(=O)(=O)c1ccc(SC)cc1`, the EC50 was > 20 µM (inactive). `O=c1c(/C=C(\O)c2ccccc2)nc2ccccc2n1-c1ccccc1` was tested, and the EC50 was 8.1 µM. Compound `CCc1nc2c(c(=O)c3ccccc3n2C)c(=O)n1C1CCCCCC1` has an EC50 of 4.68 µM. `CC(=O)Nc1ccc(Sc2ncccc2C(=O)Nc2ccc(N(O)O)cc2)cc1` gave an EC50 of 1.96 µM. `COc1ccc(CN2CCCCC2C)cc1C` (stereo not drawn) was tested, and the EC50 was > 20 µM (inactive). `CCOc1ccccc1N(CC(=O)N1CCCCC1)S(=O)(=O)c1ccc(SC)cc1` was tested, and the EC50 was 0.473 µM. For `O=C(CC1CCCCC1)c1c(O)c2ccccc2oc1=O`, the EC50 was 5.68 µM. `CCOc1ccccc1N(CC(=O)N1CCOCC1)S(=O)(=O)c1ccc(Br)cc1` showed an EC50 of 1.5 µM. Compound `CCOc1ccccc1N(CC(=O)N1CCOCC1)S(=O)(=O)c1cccc(F)c1` has an EC50 of 4.77 µM. `CC(=O)Nc1ccc(Sc2ncccc2C(=O)Nc2ccccc2F)cc1` was tested, and the EC50 was > 20 µM (inactive). `CCOC(=O)c1cc2ccccc2n1CCN(CC)CC` was tested, and the EC50 was > 20 µM (inactive). For `CC1(C)CSC(=NCc2ccccc2)N1`, the EC50 was 7.83 µM.
